# Measured values as given in US20260091086A1, “POLYPEPTIDE COMBINATIONS AND USES THEREOF” (MEDIMMUNE LIMITED, priority 2024, published 2026).
# Numbered stars: 1 amine (or outer) side, 2 acyl side, 3 side chain; on linkers, the order of the positions; unused ones are H or OH. Bridge positions count the residues as written; N and C are the ends. Square brackets hold non-standard residues; d marks the D form. Side chains are listed from the residue outwards. Ends that are not written are not given here. * marks the point of attachment. C18 diacid = O=C(O)CCCCCCCCCCCCCCCCC(=O)*; γGlu = O=C(O)[C@H](CCC(=O)[*:2])N[*:1]; αMeF = C[C@](N)(Cc1ccccc1)C(=O)O
# Tests used:
# Type in all cases: in vivo, rat
# [1] = test system: diet-induced obese (DIO) Sprague-Dawley rats; test: Example 2: 28-day combination study in DIO rats (body weight, EchoMRI body composition); conditions: LAA 10 nmol/kg, GLP-1/GCG 5.4 nmol/kg or both
# Protocol: Study Design: Male diet-induced obese (DIO) Sprague-Dawley rats were fed a high fat diet (45% fat, D12451; Research Diets) for 34 weeks prior to study start. […] Research Diets). […] Average body weight for all DIO rats at start of study was 722.4+10.1 grams. Body composition was measured by EchoMRI on day-7 and day 26. In this experiment, the LAA was that of SEQ ID NO: 11, and the GLP-1/GCG dual-agonist was cotadutide. Data reported as mean±standard error of the mean (SEM); data analysis performed using GraphPad Prism-statistical analysis performed using One-way ANOVA with Tukey ad hoc analysis.
# DIO Sprague-Dawley rats [2] = test: Example 6 Study 2: 4-week LAA, GLP-1RA or both; conditions: QD SC 4 weeks; LAA 7.5 nmol/kg, GLP-1RA 5 nmol/kg, or both; FIG. 5H
# Protocol: Study 2 Design: Male DIO Sprague-Dawley rats were injected QD SC with either vehicle, LAA 7.5 nmol/kg, GLP-1RA 5 nmol/kg, or both, for 4 weeks. Monotherapy doses were selected to achieve matching BW loss. BW and food intake were measured daily, and body composition was measured at baseline and end of study.
# [3] = test system: High-fat diet (DIO) fed rats; test: Example 9: 4-week LAA or DACRA monotherapy in DIO rats; conditions: for BW reduction compared to vehicle / reduction of cumulative food intake: 4 weeks
# Description: Study 1 Design: High-fat diet (DIO) fed rats were used to profile LAA or DACRA monotherapy to evaluate food intake, body weight-lowering and body composition effects in a 4-week study. In this experiment, the LAA was that of SEQ ID NO: 11 and the DACRA was cagrilintide.
# DIO Sprague-Dawley rats [4] = test: Example 6: treatment switch / add-on study after GLP-1RA lead-in; conditions: for body weight change, % of day 0 body weight: day 30
# Protocol: Study Design: Male DIO Sprague-Dawley rats were fed a high-fat diet (32.5% kcal fat, D12266B; Research Diets) for approximately 8 weeks prior to study start. Rats were dosed SC for 15 days with Vehicle (n=16) or GLP-1RA (n=32) (5 nmol/kg) once-daily (QD). Beginning on day 16 rats initially treated with Vehicle either continued with Vehicle (n=8) or were switched to LAA (7.5 nmol/kg, n=8) administration. Rats initially receiving GLP-1RA treatment either continued with GLP-1RA, were switched to LAA (7.5 nmol/kg), were switched to Vehicle, or continued with GLP-1RA with addition of LAA treatment (7.5 nmol/kg) for duration of study (day 30), with n=8/group. Body weight was measured daily through-out study. Data reported as mean±standard error of the mean (SEM); data analysis performed using GraphPad Prism In this experiment, the LAA was that of SEQ ID NO: 11, and the GLP-1R agonist was semaglutide.
# DIO Sprague-Dawley rats [5] = test: Example 3: 28-day body weight study in DIO rats; conditions: day 28; LAA 7.5 nmol/kg SC QD
# Protocol: Study Design: Male DIO Sprague-Dawley rats were fed a high-fat diet (32.5% kcal fat, D12266B; Research Diets) for approximately 8 weeks prior to study start. Rats were dosed once daily SC for 28 days with Vehicle, GLP-1/GCG (1.5 nmol/kg or 5 nmol/kg), LAA (7.5 nmol/kg) or a combination of GLP-1/GCG and LAA (1.5 and 7.5 nmol/kg, or 5 nmol/kg and 7.5 nmol/kg, respectively) with an n=6/group. Body weight was monitored daily throughout the study. Data reported as mean±standard error of the mean (SEM); data analysis performed using GraphPad Prism-statistical analysis performed using One-way ANOVA with Tukey ad hoc analysis (*p<0.05, **p<0.01, ***0<0.001, ****p<0.0001). In this experiment, the LAA was that of SEQ ID NO: 11, and the GLP-1/GCG dual-agonist was cotadutide.
# DIO Sprague-Dawley rats [6] = test: Example 6 Study 3: 28-day treatment and 14-day wash-out
# Protocol: Study 3 Design: Male DIO Sprague-Dawley rats (Charles River Laboratories) were fed a high-fat diet (32.5% kcal fat, D12266B; […] Rats were dosed SC QD for 28 days with Vehicle (n=16), GLP-1RA at 5 nmol/kg (n=16), LAA (“SARA”) at 7.5 nmol/kg (n=16), or GLP1RA+LAA at 5+7.5 nmol/kg respectively (n=16). Following 28 days of treatment half the animals per group stopped treatment and were allowed to wash-out for 14 days (n=8/group), while the remaining animals per group were euthanized with blood/tissues collected. Body weight and food intake were measured daily, and body composition was measured before study start, on day 27 and then again on day 42. Data reported as mean±standard error of the mean (SEM); data analysis performed using GraphPad Prism. In this experiment, the LAA was that of SEQ ID NO: 11, and the GLP-1RA was semaglutide.
# [7] = test system: DIO male pair-housed rats; test: Example 3 additional study: 28-day body weight, food intake and organ weights in DIO rats; conditions: 28 days SC daily
# Protocol: Study design: DIO male pair-housed rats fed a 32.5% high-fat diet (D12266B) for 7 weeks reached a mean body weight (BW) of ˜595 g. Rats were dosed SC daily for 28 days with vehicle (Vh), GLP-1/GCG dual agonist (1.5 or 5 nmol/kg), LAA (2.5 or 7.5 nmol/kg), or combination (1.5+2.5 nmol/kg, 1.5+7.5 nmol/kg, 5+2.5 nmol/kg, or 5+7.5 nmol/kg, respectively). Food intake (FI) and BW were measured daily. In chow fed lean rats, gastric emptying (GE) was measured via X-ray fluoroscopic quantification following SC injections of Vh, GLP-1/GCG dual agonist at 1, 3, or 10 nmol/kg or LAA at 1, 3, or 10 nmol/kg. In a subsequent acute GE study, lean rats received a single dose of Vh, GLP-1/GCG dual agonist (2 nmol/kg), LAA (2 nmol/kg) or GLP-1/GCG dual agonist+LAA combination (2+2 nmol/kg). In this experiment, the LAA was that of SEQ ID NO: 11, and the GLP-1/GCG dual-agonist was cotadutide.
# [8] = end of study, after initial GLP-1RA: GLP-1RA continued, switched to LAA, or Combination
substance,measurement,setting,value
K(γE-γE-C18diacid)[CNTATC]ATQRLANFLRHSSNN(αMePhe)GPILPPTEVGSNTY-amide (K([γGlu-γGlu-C18 diacid])CNTATCATQRLANFLRHSSNN[αMeF]GPILPPTEVGSNTY-NH2; disulfide 2-7) [LAA],body weight loss vs Vehicle,"[1]; SC QD, FIG. 1A",lost significantly more body weight than Vehicle treated rats
same,fat mass change (EchoMRI),[1]; day 26,lost a significant amount of fat mass compared to Vehicle treatment
same,lean mass change (EchoMRI),[1]; day 26,little effect on lean mass
same,fat mass change from baseline,DIO Sprague-Dawley rats [2],greater loss of fat mass than GLP-1RA monotherapy
same,BW reduction compared to vehicle,[3]; 2.5 nmol/kg,−5.2±0.6%
same,reduction of cumulative food intake,[3]; 2.5 nmol/kg,−14.3±1.2 % of vehicle
same,BW reduction compared to vehicle,[3]; 10 nmol/kg,−9.7±0.7%
same,reduction of cumulative food intake,[3]; 10 nmol/kg,−20.9±0.7 % of vehicle
same,fat-mass loss,"[3]; end of study, 10 nmol/kg",-28.0 ± 2.3 g
same,proportion of body weight loss that was fat-mass specific,"[3]; end of study, 10 nmol/kg, FIG. 8C",100%
same,lean mass,"[3]; end of study, FIG. 8B",Lean mass was preserved in the LAA groups
same,total lean mass at the end of the study,DIO Sprague-Dawley rats [4]; FIG. 5E,trend towards the animals switching to LAA therapy preserving the most lean mass
same,fasting leptin levels at the end of the study,"DIO Sprague-Dawley rats [4]; compared to discontinuing therapy at day 15, FIG. 5F",significantly reduced
same,"body weight change, % of day 0 body weight",DIO Sprague-Dawley rats [4]; switched from GLP-1RA to LAA 7.5 nmol/kg on day 16,−3.4%
same,"body weight change, % of day 0 body weight",DIO Sprague-Dawley rats [4]; switched from Vehicle to LAA 7.5 nmol/kg on day 16,+1.1%
same,Fat,DIO Sprague-Dawley rats [4]; [8],103.70 g
same,"Fat, Δ from Control",DIO Sprague-Dawley rats [4]; [8],41.95 g
same,change in body weight normalized to Vehicle,"DIO Sprague-Dawley rats [4]; end of study, switched from GLP-1RA to LAA",−12%
same,change in body weight normalized to Vehicle,"DIO Sprague-Dawley rats [4]; end of study, switched from VH to LAA",−7.1%
same,"Fat, Δ from Vehicle","DIO Sprague-Dawley rats [4]; end of study, vs group switched from GLP-1RA to Vehicle",27.21 g
same,mean change in body weight normalized to Vehicle,DIO Sprague-Dawley rats [5],−13.7%
same,inhibition of food intake compared to vehicle,"DIO Sprague-Dawley rats [6]; SC QD 28 days, LAA 7.5, GLP-1RA 5, or 5+7.5 nmol/kg",~−20%
same,BW loss compared to vehicle,"DIO Sprague-Dawley rats [6]; SC QD 28 days, LAA 7.5, GLP-1RA 5, or 5+7.5 nmol/kg, FIG. 5I",−9.3%
same,lean mass change,"DIO Sprague-Dawley rats [6]; baseline to day 27, FIG. 5K",preservation of lean mass
same,fat mass change from baseline,"DIO Sprague-Dawley rats [6]; baseline to day 27, LAA 7.5, GLP-1RA 5, or 5+7.5 nmol/kg, FIG. 5J",-17.7 g
same,Vh corrected BW change (BW gain),[7]; LAA 2.5 nmol/kg,−9.4%
same,Vh corrected BW change (BW gain),[7]; LAA 7.5 nmol/kg,−13.7%
same,Cumulative FI normalized to Vh,[7]; monotherapy and combination groups,decreased in a dose-dependent manner
